Test results: US20240189318A1, “THERAPEUTIC REGIMENS OF AN INHIBITOR OF THE ENZYMATIC ACTIVITY OF BRG1 AND BRM” (FOGHORN THERAPEUTICS INC., priority 2021, published 2024)
Read-outs that look alike come from different tables or passages of the source.

Assays:
249 other ATPases = test: Additional profiling: binding to other ATPases in cells
[1] = tested on: 92-1 uveal melanoma cells; test: 92-1 uveal melanoma xenograft, Example 16; assay type: in vivo
[2] = Bidirectional transport in MDCK control cells (passive permeability); assay type: in vitro ADME; details: dog; for Papp B→A at 1 μM / Papp B→A at 50 μM / Papp A→B at 1 μM / Papp A→B at 10 μM / Papp B→A at 10 μM / Papp A→B at 50 μM: MDCK; for Papp A→B at 10 μM / Papp B→A at 10 μM: 10 μM compound of formula (I)
MDCK control cells = test: as above; assay type: in vitro ADME; details: MDCK control cells
OAT1 = molecular target: T1, OAT1 (Homo sapiens, UniProt Q4U2R8); test: Transporter inhibition in MDCK-II cells, OAT1; assay type: in vitro ADME; details: for IC50: probe p-aminohippurate 2 μM
T1 construct: expressed in transfected cells; host or cells: MDCK-II
T1 sequence (Q4U2R8 1-563): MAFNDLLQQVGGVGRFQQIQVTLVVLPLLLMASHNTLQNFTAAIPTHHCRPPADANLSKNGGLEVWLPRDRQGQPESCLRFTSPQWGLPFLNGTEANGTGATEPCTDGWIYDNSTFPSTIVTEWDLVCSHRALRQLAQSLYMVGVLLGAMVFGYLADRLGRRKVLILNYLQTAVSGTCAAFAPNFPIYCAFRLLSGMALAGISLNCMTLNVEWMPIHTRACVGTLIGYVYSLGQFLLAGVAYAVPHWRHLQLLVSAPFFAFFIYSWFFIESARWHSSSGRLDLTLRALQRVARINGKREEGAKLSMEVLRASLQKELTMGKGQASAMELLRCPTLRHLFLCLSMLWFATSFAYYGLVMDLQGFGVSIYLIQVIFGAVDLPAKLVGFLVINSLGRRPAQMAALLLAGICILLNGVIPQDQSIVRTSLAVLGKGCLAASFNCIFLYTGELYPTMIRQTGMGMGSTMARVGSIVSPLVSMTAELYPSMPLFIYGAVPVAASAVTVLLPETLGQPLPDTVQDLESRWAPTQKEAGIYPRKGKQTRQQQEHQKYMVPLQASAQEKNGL

OATP1B3 = molecular target: T2, OATP1B3 (Homo sapiens, UniProt Q9NPD5); test: Transporter inhibition in MDCK-II cells, OATP1B3; assay type: in vitro ADME; details: probe CCK-8 2 μM
T2 construct: expressed in transfected cells; host or cells: MDCK-II

CYP3A4 mRNA = test: CYP mRNA level (qRT-PCR) in cultured human hepatocytes, CYP3A4; assay type: in vitro ADME; details: 72 hours
CYP2C19 mRNA = test: CYP mRNA level in cultured human hepatocytes, CYP2C19; assay type: in vitro ADME; details: tested concentrations up to 50 nM
CYP1a2 mRNA = test: CYP mRNA expression in cultured rat hepatocytes, CYP1a2; assay type: in vitro ADME; details: 0.3 to 100 nM
BRM = BRM (Homo sapiens, UniProt P51531); test: biochemical
92-1 cells = test: 3-day cell proliferation assay (CellTiter-Glo); details: Homo sapiens, 72 h, read-out: mean IC50, cell proliferation
CYP1A2 = molecular target: T3, CYP1A2 (Homo sapiens, UniProt P05177); test: Depletion by recombinant CYP enzyme, CYP1A2; assay type: in vitro ADME; parameters: from tissue; host or cells: pooled human liver microsomes; details: recombinant 1A2
T3 sequence (P05177 1-516): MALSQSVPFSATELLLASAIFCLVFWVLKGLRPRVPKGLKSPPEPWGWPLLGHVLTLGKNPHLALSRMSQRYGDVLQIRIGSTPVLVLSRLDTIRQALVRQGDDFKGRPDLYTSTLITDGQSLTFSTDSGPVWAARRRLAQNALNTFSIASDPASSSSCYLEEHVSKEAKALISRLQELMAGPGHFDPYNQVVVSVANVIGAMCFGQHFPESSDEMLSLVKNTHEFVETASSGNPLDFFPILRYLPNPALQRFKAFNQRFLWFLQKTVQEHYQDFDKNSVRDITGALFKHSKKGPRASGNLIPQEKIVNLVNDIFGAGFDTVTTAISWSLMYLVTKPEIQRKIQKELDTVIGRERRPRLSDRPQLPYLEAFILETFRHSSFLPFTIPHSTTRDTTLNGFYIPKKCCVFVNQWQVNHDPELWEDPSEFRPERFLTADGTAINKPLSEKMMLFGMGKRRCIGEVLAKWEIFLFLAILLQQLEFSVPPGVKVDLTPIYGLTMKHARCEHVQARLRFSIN

CYP2C9 = CYP2C9 (Homo sapiens, UniProt P11712); test: CYP enzyme inhibition in pooled human liver microsomes, CYP2C9; details: for inhibition at 30 µM: human, microsomes, Enzyme activity (% inhibition), CYP2C9, probe Diclofenac
CYP3A4/5 = test: CYP enzyme inhibition in pooled human liver microsomes, CYP3A4/5; details: for inhibition at 10 µM / inhibition at 30 µM: Enzyme activity (% inhibition), CYP3A4/5
[3] = tested on: cultured human hepatocytes; test: Cytotoxicity to cultured human hepatocytes (morphology, LDH release); details: second study, 0.3 to 50 nM, 72 hours
3A4/5 = test: Selective chemical inhibition of compound of formula (I) depletion in human liver microsomes, CYP3A4/5; details: reaction phenotyping
[4] = BCRP assay, 50 μM compound of formula (I)
[5] = P-gp assay, 1 μM compound of formula (I)
[6] = PHLM, concentrations up to 30 μM
[7] = human, pooled human liver microsomes, probe midazolam (1′-hydroxylation), 30 Minutes Pre-incubation with NADPH, probe Midazolam, PHLM
[8] = human, pooled human liver microsomes, probe midazolam (1′-hydroxylation), 30 Minutes Pre-incubation without NADPH, probe Midazolam, PHLM
[9] = human, pooled human liver microsomes, probe midazolam (1′-hydroxylation), No Pre-incubation, probe Midazolam, PHLM
[10] = human, pooled human liver microsomes, probe testosterone (6β-hydroxylation), 30 Minutes Pre-incubation with NADPH, probe Testosterone, PHLM
[11] = human, pooled human liver microsomes, probe testosterone (6β-hydroxylation), 30 Minutes Pre-incubation without NADPH, probe Testosterone, PHLM
[12] = human, pooled human liver microsomes, probe testosterone (6β-hydroxylation), No Pre-incubation, probe Testosterone, PHLM

CYP2C9, sequence (P11712 whole entry): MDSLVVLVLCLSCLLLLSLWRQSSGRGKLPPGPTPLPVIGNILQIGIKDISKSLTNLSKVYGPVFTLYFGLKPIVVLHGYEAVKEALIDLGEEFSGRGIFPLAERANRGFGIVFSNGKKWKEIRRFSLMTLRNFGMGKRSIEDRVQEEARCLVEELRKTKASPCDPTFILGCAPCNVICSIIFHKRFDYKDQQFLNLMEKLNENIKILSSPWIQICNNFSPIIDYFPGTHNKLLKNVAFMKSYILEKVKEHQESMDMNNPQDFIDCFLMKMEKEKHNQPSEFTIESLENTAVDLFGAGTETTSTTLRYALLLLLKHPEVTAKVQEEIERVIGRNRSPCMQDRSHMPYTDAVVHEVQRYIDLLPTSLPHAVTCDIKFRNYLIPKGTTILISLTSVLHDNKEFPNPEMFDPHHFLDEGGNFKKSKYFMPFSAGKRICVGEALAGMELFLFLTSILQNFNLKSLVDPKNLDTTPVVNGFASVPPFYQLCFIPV
T2 sequence (Q9NPD5 whole entry): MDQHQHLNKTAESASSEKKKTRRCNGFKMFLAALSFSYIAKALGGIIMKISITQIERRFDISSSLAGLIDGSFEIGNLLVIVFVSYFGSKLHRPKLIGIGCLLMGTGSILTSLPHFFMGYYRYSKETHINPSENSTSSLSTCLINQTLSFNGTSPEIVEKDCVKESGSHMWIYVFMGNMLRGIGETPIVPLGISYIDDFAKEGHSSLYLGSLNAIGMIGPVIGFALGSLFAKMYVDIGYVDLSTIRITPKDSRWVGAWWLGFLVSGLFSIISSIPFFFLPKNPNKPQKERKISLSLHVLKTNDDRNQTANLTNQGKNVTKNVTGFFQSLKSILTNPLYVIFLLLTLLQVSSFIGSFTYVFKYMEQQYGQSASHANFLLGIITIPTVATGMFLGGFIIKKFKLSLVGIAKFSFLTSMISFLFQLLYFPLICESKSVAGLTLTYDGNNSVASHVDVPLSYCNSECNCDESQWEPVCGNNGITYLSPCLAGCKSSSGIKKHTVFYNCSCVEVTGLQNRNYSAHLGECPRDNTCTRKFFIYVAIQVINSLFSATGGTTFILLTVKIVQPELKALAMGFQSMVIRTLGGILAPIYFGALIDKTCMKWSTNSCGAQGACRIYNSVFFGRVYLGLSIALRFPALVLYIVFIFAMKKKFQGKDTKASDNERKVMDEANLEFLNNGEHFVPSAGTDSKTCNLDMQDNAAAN
BRM, sequence (P51531 whole entry): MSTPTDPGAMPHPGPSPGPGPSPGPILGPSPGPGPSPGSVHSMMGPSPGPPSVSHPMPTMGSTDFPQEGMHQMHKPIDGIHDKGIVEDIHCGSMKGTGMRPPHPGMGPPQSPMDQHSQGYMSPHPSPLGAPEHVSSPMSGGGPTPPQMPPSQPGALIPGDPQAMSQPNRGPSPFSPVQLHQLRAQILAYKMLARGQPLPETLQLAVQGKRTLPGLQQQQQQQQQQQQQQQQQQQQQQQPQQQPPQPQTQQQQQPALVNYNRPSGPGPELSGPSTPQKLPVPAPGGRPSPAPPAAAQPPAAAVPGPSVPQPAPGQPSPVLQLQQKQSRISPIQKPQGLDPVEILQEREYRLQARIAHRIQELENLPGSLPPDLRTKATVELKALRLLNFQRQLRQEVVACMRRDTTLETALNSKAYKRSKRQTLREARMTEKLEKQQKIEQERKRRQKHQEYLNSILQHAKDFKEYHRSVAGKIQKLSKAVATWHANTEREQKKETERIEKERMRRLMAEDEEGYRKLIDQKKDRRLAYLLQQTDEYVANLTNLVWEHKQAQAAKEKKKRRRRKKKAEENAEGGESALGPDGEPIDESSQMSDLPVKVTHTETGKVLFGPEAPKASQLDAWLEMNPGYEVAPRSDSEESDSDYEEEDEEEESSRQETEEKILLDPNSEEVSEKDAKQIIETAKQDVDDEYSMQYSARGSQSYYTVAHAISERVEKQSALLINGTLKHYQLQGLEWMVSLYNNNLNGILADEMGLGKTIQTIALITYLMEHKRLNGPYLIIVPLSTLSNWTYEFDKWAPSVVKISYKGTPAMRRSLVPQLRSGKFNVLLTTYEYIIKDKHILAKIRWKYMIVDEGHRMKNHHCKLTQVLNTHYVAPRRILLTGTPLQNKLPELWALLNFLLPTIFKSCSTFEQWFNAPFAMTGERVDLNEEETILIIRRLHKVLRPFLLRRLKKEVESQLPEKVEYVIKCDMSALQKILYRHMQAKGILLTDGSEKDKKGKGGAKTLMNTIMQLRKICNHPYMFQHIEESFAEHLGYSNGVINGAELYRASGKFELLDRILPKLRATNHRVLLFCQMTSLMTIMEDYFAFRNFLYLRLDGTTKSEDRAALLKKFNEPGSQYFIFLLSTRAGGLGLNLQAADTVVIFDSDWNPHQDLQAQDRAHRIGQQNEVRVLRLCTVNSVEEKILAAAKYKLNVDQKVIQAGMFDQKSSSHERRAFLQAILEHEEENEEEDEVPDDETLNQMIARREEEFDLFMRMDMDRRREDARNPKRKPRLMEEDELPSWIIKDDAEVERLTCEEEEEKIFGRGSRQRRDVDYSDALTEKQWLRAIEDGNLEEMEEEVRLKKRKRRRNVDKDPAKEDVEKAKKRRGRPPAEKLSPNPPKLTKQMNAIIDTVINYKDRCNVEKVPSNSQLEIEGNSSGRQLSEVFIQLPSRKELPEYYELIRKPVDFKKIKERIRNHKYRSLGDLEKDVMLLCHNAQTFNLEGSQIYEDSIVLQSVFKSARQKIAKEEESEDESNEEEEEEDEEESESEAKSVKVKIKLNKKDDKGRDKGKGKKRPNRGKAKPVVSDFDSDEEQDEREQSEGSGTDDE

For `COC[C@H](NC(=O)c1ccn(S(C)(=O)=O)c1)C(=O)Nc1nc(-c2cccc(N3C[C@@H](C)O[C@@H](C)C3)n2)cs1` [compound of formula (I), N-((S)-1-((4-(6-(cis-2,6-dimethylmorpholino)pyridin-2-yl)thiazol-2-yl)amino)-3-methoxy-1-oxopropan-2-yl)-1-(methylsulfonyl)-1H-pyrrole-3-carboxamide], the “binding to 249 other ATPases in cells” value (249 other ATPases) was “little binding”, the “tumor response at the highest dose” value ([1]; […], once daily oral gavage) was “tumor regression” and the “tolerability based on % body weight change” value ([1]; all treatments) was “well tolerated”. For the same compound, the tumor growth inhibition ([1]; nude mice, 92-1 xenograft, once daily oral gavage, 3 weeks, increasing doses) was “tumor growth inhibition in a dose-dependent manner”, the Papp B→A at 1 μM [2] was 18.2 ×10⁻⁶ cm/s and the Papp B→A at 50 μM [2] was 18.5 ×10⁻⁶ cm/s. The Papp A→B at 1 μM ([2]; BCRP assay, 1 μM compound of formula (I)) was 26 ×10⁻⁶ cm/s, the Papp A→B at 10 μM ([2]; BCRP assay) was 25.4 ×10⁻⁶ cm/s and the Papp B→A at 10 μM ([2]; BCRP assay) was 20.9 ×10⁻⁶ cm/s. The Papp A→B at 50 μM [2, 4] was 21.3 ×10⁻⁶ cm/s, the Papp B→A at 50 μM [2, 4] was 19.2 ×10⁻⁶ cm/s and the Papp A→B at 1 μM [2, 5] was 28.8 ×10⁻⁶ cm/s. It also gave a Papp B→A at 1 μM [2, 5] of 21 ×10⁻⁶ cm/s, a Papp A→B at 10 μM ([2]; P-gp assay) of 31 ×10⁻⁶ cm/s and a Papp B→A at 10 μM ([2]; P-gp assay) of 23.6 ×10⁻⁶ cm/s. The Papp A→B at 50 μM ([2]; P-gp assay, 50 μM compound of formula (I)) was 25.5 ×10⁻⁶ cm/s, the Papp ([2]; MDCK control cells, read-out: apparent permeability coefficient (Papp) (B→A) or Papp (A→B)) was no less than 15 ×10⁻⁶ cm/s and the passive permeability (MDCK control cells) was “high passive permeability”. The IC50 (OAT1; OAT1, corrected for difference between measured and nominal concentrations, read-out: IC50 corrected for non-specific binding) was greater than 11.8 µM, the IC50 (OAT1; OAT1 in MDCK-II cells, read-out: Estimated IC50 using nominal concentrations) was greater than 50 µM and the “inhibition toward OAT1” value (OAT1; nominal test concentrations up to 50 μM) was “minimal inhibition”. The IC50 (OATP1B3; OATP1B3, corrected, read-out: IC50 corrected for non-specific binding) was 2.68 µM, the IC50 (OATP1B3; OATP1B3 in MDCK-II cells, read-out: Estimated IC50 using nominal concentrations) was 11.4 µM and the “concentrations at which CYP3A4 mRNA expression was down-regulated (>50% decrease)” value (CYP3A4 mRNA) was no less than 1 nM. For the same compound, the “effect on mRNA expression of CYP2C19” value (CYP2C19 mRNA) was “minimal effect”, the “CYP1a2 mRNA expression decreased ≥50%” value (CYP1a2 mRNA) was “but not CYP1a2” and the IC50 (BRM) was 0.0045 µM. The IC50 (92-1 cells) was 0.00113 µM, the “% Remaining of Compound of Formula (I)” value (CYP1A2; 0.1 μM) was 89.4% and the “% Remaining of Compound of Formula (I)” value (CYP1A2; 1 μM) was 113%. For the same compound, the IC50 (CYP2C9) was greater than 30 µM, the “direct inhibitory activity (% inhibition) toward CYP2C9” value (CYP2C9; [6]) was less than 50% and the inhibition at 30 µM (CYP2C9; 30 Minutes Pre-incubation with NADPH, PHLM) was 43.5%. For the same compound, the inhibition at 30 µM (CYP2C9; 30 Minutes Pre-incubation without NADPH, PHLM) was 29.5%, the inhibition at 30 µM (CYP2C9; No Pre-incubation, PHLM) was 47.1% and the “time-dependent inhibition of CYP3A4/5” value (CYP3A4/5; PHLM) was “weak time-dependent inhibitor”. The “direct inhibitory activity (% inhibition) toward CYP3A” value (CYP3A4/5; [6]) was less than 50%, the IC50 (CYP3A4/5; human, pooled human liver microsomes) was greater than 30 µM and the inhibition at 30 min, 10 µM (CYP3A4/5; human, pooled human liver microsomes, increase in CYP3A4/5 inhibition by preincubation, concentrations of ≤10 μM) was less than 20%. For the same compound, the inhibition at 10 µM (CYP3A4/5; [7]) was 25.3%, the inhibition at 30 µM (CYP3A4/5; [7]) was 40.2% and the inhibition at 10 µM (CYP3A4/5; [8]) was 6.5%. For the same compound, the inhibition at 30 µM (CYP3A4/5; [8]) was -1%, the inhibition at 10 µM (CYP3A4/5; [9]) was 18.2% and the inhibition at 30 µM (CYP3A4/5; [9]) was 13.6%. The inhibition at 10 µM (CYP3A4/5; [10]) was 27.4%, the inhibition at 30 µM (CYP3A4/5; [10]) was 49.3% and the inhibition at 10 µM (CYP3A4/5; [11]) was 10.5%. It also gave an inhibition at 30 µM (CYP3A4/5; [11]) of 20.8%, an inhibition at 10 µM (CYP3A4/5; [12]) of 9.7% and an inhibition at 30 µM (CYP3A4/5; [12]) of 18.4%. The “cytotoxicity to cultured human hepatocytes” value [3] was “no evidence of cytotoxicity” and the “role of CYP3A in metabolism in human liver microsomes” value (3A4/5) was “major CYP enzyme responsible”.
